{"source": "PubChem BioAssay (NCI)", "test_in_all_cases": "NCI tumour cell line growth inhibition, 48 h", "key": {"OVCAR-3 ovarian": {"system": "OVCAR-3 ovarian"}, "HCT-116 colon": {"system": "HCT-116 colon"}, "UACC-62 melanoma": {"system": "UACC-62 melanoma"}, "NCI-H460 lung": {"system": "NCI-H460 lung"}, "SR leukemia": {"system": "SR leukemia"}, "RXF 393 renal": {"system": "RXF 393 renal"}, "NCI-H23 lung": {"system": "NCI-H23 lung"}, "SK-MEL-28 melanoma": {"system": "SK-MEL-28 melanoma"}, "A498 renal": {"system": "A498 renal"}, "MOLT-4 leukemia": {"system": "MOLT-4 leukemia"}, "BT-549 breast": {"system": "BT-549 breast"}, "MALME-3M melanoma": {"system": "MALME-3M melanoma"}, "LOX IMVI melanoma": {"system": "LOX IMVI melanoma"}, "ACHN renal": {"system": "ACHN renal"}, "MCF7 breast": {"system": "MCF7 breast"}, "SW-620 colon": {"system": "SW-620 colon"}, "786-0 renal": {"system": "786-0 renal"}, "HCC-2998 colon": {"system": "HCC-2998 colon"}, "HL-60(TB) leukemia": {"system": "HL-60(TB) leukemia"}, "NCI-H522 lung": {"system": "NCI-H522 lung"}, "A549 NSCLC": {"system": "A549 NSCLC"}, "OVCAR-8 ovarian": {"system": "OVCAR-8 ovarian"}, "SK-MEL-5 melanoma": {"system": "SK-MEL-5 melanoma"}, "CAKI-1 renal": {"system": "CAKI-1 renal"}, "SK-OV-3 ovarian": {"system": "SK-OV-3 ovarian"}, "HT29 colon": {"system": "HT29 colon"}, "MDA-MB-231 breast": {"system": "MDA-MB-231 breast"}, "COLO 205 colon": {"system": "COLO 205 colon"}, "K-562 leukemia": {"system": "K-562 leukemia"}, "SN12C renal": {"system": "SN12C renal"}}, "note": "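How tested: cells in 96-well plates exposed to compound for 48 hours at five concentrations. Here, GI50 denotes the concentration required for 50% inhibition of growth. TGI: concentration producing complete growth inhibition.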", "data": [{"smiles": "O=C1C(=O)c2c(nc3ccc(Cl)cn23)-c2ccccc21", "values": [{"measurement": "TGI", "setting": "OVCAR-3 ovarian", "result": 908, "unit": "nM"}, {"measurement": "GI50", "setting": "HCT-116 colon", "result": 311, "unit": "nM"}, {"measurement": "TGI", "setting": "HCT-116 colon", "result": 3730, "unit": "nM"}, {"measurement": "GI50", "setting": "UACC-62 melanoma", "result": 285, "unit": "nM"}, {"measurement": "TGI", "setting": "UACC-62 melanoma", "result": 904, "unit": "nM"}, {"measurement": "GI50", "setting": "NCI-H460 lung", "result": 538, "unit": "nM"}, {"measurement": "TGI", "setting": "NCI-H460 lung", "result": 2310, "unit": "nM"}, {"measurement": "GI50", "setting": "SR leukemia", "result": 348, "unit": "nM"}, {"measurement": "TGI", "setting": "SR leukemia", "result": 1440, "unit": "nM"}, {"measurement": "GI50", "setting": "RXF 393 renal", "result": 564, "unit": "nM"}, {"measurement": "TGI", "setting": "RXF 393 renal", "result": 5610, "unit": "nM"}, {"measurement": "GI50", "setting": "NCI-H23 lung", "result": 324, "unit": "nM"}, {"measurement": "TGI", "setting": "NCI-H23 lung", "result": 1470, "unit": "nM"}, {"measurement": "GI50", "setting": "SK-MEL-28 melanoma", "result": 253, "unit": "nM"}, {"measurement": "TGI", "setting": "SK-MEL-28 melanoma", "result": 557, "unit": "nM"}, {"measurement": "GI50", "setting": "A498 renal", "result": 1640, "unit": "nM"}, {"measurement": "TGI", "setting": "A498 renal", "result": 3110, "unit": "nM"}, {"measurement": "GI50", "setting": "MOLT-4 leukemia", "result": 308, "unit": "nM"}, {"measurement": "GI50", "setting": "BT-549 breast", "result": 502, "unit": "nM"}, {"measurement": "TGI", "setting": "BT-549 breast", "result": 1210, "unit": "nM"}, {"measurement": "GI50", "setting": "MALME-3M melanoma", "result": 171, "unit": "nM"}, {"measurement": "TGI", "setting": "MALME-3M melanoma", "result": 368, "unit": "nM"}, {"measurement": "GI50", "setting": "LOX IMVI melanoma", "result": 216, "unit": "nM"}, {"measurement": "TGI", "setting": "LOX IMVI melanoma", "result": 498, "unit": "nM"}, {"measurement": "GI50", "setting": "ACHN renal", "result": 591, "unit": "nM"}, {"measurement": "TGI", "setting": "ACHN renal", "result": 1880, "unit": "nM"}, {"measurement": "GI50", "setting": "MCF7 breast", "result": 167, "unit": "nM"}, {"measurement": "TGI", "setting": "MCF7 breast", "result": 356, "unit": "nM"}, {"measurement": "GI50", "setting": "SW-620 colon", "result": 292, "unit": "nM"}, {"measurement": "TGI", "setting": "SW-620 colon", "result": 1030, "unit": "nM"}, {"measurement": "GI50", "setting": "786-0 renal", "result": 775, "unit": "nM"}, {"measurement": "TGI", "setting": "786-0 renal", "result": 1820, "unit": "nM"}, {"measurement": "GI50", "setting": "HCC-2998 colon", "result": 2060, "unit": "nM"}, {"measurement": "TGI", "setting": "HCC-2998 colon", "result": 3960, "unit": "nM"}, {"measurement": "GI50", "setting": "HL-60(TB) leukemia", "result": 235, "unit": "nM"}, {"measurement": "GI50", "setting": "NCI-H522 lung", "result": 668, "unit": "nM"}, {"measurement": "TGI", "setting": "NCI-H522 lung", "result": 2000, "unit": "nM"}, {"measurement": "GI50", "setting": "A549 NSCLC", "result": 840, "unit": "nM"}, {"measurement": "GI50", "setting": "OVCAR-8 ovarian", "result": 471, "unit": "nM"}, {"measurement": "TGI", "setting": "OVCAR-8 ovarian", "result": 1910, "unit": "nM"}, {"measurement": "GI50", "setting": "SK-MEL-5 melanoma", "result": 161, "unit": "nM"}, {"measurement": "TGI", "setting": "SK-MEL-5 melanoma", "result": 309, "unit": "nM"}, {"measurement": "GI50", "setting": "CAKI-1 renal", "result": 477, "unit": "nM"}, {"measurement": "TGI", "setting": "CAKI-1 renal", "result": 1040, "unit": "nM"}, {"measurement": "GI50", "setting": "SK-OV-3 ovarian", "result": 1710, "unit": "nM"}, {"measurement": "TGI", "setting": "SK-OV-3 ovarian", "result": 3310, "unit": "nM"}, {"measurement": "GI50", "setting": "HT29 colon", "result": 3260, "unit": "nM"}, {"measurement": "TGI", "setting": "HT29 colon", "result": 19800, "unit": "nM"}, {"measurement": "GI50", "setting": "MDA-MB-231 breast", "result": 296, "unit": "nM"}, {"measurement": "TGI", "setting": "MDA-MB-231 breast", "result": 3950, "unit": "nM"}, {"measurement": "GI50", "setting": "COLO 205 colon", "result": 1790, "unit": "nM"}, {"measurement": "TGI", "setting": "COLO 205 colon", "result": 3540, "unit": "nM"}, {"measurement": "GI50", "setting": "K-562 leukemia", "result": 163, "unit": "nM"}, {"measurement": "TGI", "setting": "K-562 leukemia", "result": "> 100000", "unit": "nM"}, {"measurement": "GI50", "setting": "SN12C renal", "result": 219, "unit": "nM"}, {"measurement": "TGI", "setting": "SN12C renal", "result": 567, "unit": "nM"}]}]}
